Measurements published in patent publication US9603896B2, “Peptide compounds and methods of production and use thereof” (priority 2012, dated 2017).
Ends that are not written are not given here.

Key:
Format in all cases: in vivo
[1] = test system: P. aeruginosa (ATCC® 27853™); experiment: Pseudomonas keratitis model in the mouse eye; conditions: topical, doses of 10 and 20 mg/ml
Procedure: A circular wound was created on the mouse cornea by removing the epithelium and infected with 10^5 colony forming units (CFU) of P. aeruginosa (ATCC® 27853™ (American Type Culture Collection, Manassas, Va.)). Infected wounds were treated with saline (0.9% sodium chloride, vehicle control) or saline containing indicated concentrations of peptide every 15 minutes for 2 hours, then every 30 minutes for 3 hours on the first day. Infected wounds were treated twice on the second day and once on the third day. Mice were killed at 48 hours post-infection, and CFU/eye were quantified. The means were plotted and are representative of 5 to 9 mice per group. Mann Whitney test was performed for each group as compared to the saline control group. *P=0.014.
A circular wound (2 mm) was created on the mouse cornea by removing the epithelium and infecting the wound with 10^5 CFU of P. aeruginosa (ATCC® 27853™ (American Type Culture Collection, Manassas, Va.)). Infected wounds were treated with saline or saline containing indicated concentrations of peptide every 15 minutes for 2 hours, then every 30 minutes for 3 hours on the first day. Infected wounds were treated twice on the second day and once on the third day. Mice were killed at 48 hours post-infection, and the colony forming units per eye (CFU/eye) were quantified. The means are plotted and are representative of 5 to 9 mice per group. Mann Whitney test was performed for each group as compared to the saline control group.
For FIGS. 15-17, in vivo bactericidal activity of the peptides was also investigated using the standard Pseudomonas keratitis model in the mouse eye (FIGS. 15-17). Peptides 120-146QR-5RMP (SEQ ID NO:32), 120-146WH (SEQ ID NO:31), and 120-146WR (SEQ ID NO: 30) were applied topically at doses of 2, 5, 10, and 20 mg/ml to the wounded cornea that had been infected with 10^5 CFU of Pseudomonas aeruginosa. The efficacies of the peptides were compared to treatment with the vehicle control. Mice were euthanized at 48 hours post infection, and the CFU/eye were quantified.

swine skin = experiment: Swine full thickness excisional dermal wound model; conditions: for Mean Wound Healing (%): topical 3 mg/ml, 0.20 ml per wound daily; for histology: epidermal resurfacing and maturation vs saline control: day 14 post-wounding; for dermal wound healing vs saline: topically at 3 mg/ml, over 14 days; for Histopathology Results, Mean Angiogenesis / Histopathology Results, Mean Epithelization / Histopathology Results, Mean Granulation / Histopathology Results, Mean Inflammation: wounds harvested day 14, 3 mg/ml topical
Procedure: In this Example, peptide compounds of the presently disclosed and claimed inventive concept(s) were evaluated as to their activity on the dermal wound healing process in a clinically relevant swine full thickness excisional wound model. Three different peptide formulations (Group B, Peptide 95-122 (SEQ ID NO:26); Group C, Peptide 120-146WH (SEQ ID NO:31); and Group D, Peptide 120-146QH-5RMP (SEQ ID NO:33)) were each evaluated at the same concentration (3 mg/ml). Sterile saline served as the control (Group A).
Full thickness excisional wounds were induced on the dorsum of swine (N=3) using a 1.0 cm biopsy punch. Treatments were administered (0.20 ml) to each wound (N=6 wounds per group), and the wounds were dressed with standard occlusive dressing ([…]™, 3M Corporation, St. Paul, Minn.). Treatments were reapplied daily and dressings changed. Clinical wound healing observations and wound area (2 mm) measurements were performed on days 0, 3, 5, 7, 10, and 14 post-wounding. Wound area (2 mm) data were expressed as percentage (%) of wound healing. Animals were terminated on day 14 with wounds harvested and processed for histological evaluation. […] All peptide formulation treatment groups healed faster with greater rate of closure and re-epithelialization over time, as compared to the saline control (Group A).

[2] = test system: cytokines in mouse cornea; experiment: Cytokines in corneal lysates after intrastromal injection (MILLIPLEX MAP mouse cytokine assay); conditions: intrastromal 0.5 μl, 10^−4, 10^−5, 10^−6 M; 24 and 48 hours
Procedure: Corneas were injected intrastromally with 0.5 μl of peptide 95-122 at a final concentration of 10^−4 M, 10^−5 M, and 10^−6 M and vehicle (saline) control. Corneas were collected and flash frozen at 24 hours and 48 hours. Corneal lysates were analyzed for cytokines using the MILLIPLEX® MAP mouse cytokine assay for IL-7(A), IL-15 (B), IFN-γ (C), MIP1-α (D) (EMD Millipore Corp., Billerica, Mass.). The means of independent experimental values are shown ±SEM. ***P<0.001, **P<0.01, *P<0.05 by unpaired t-test as compared to vehicle treated controls. […] Corneas were injected intrastromally with 0.5 μl of peptide 95-122 at a final concentration of 10^−4 M, 10^−5 M, and 10^−6 M and vehicle (saline) control. Corneas were collected and flash frozen at 24 hours and 48 hours. Corneal lysates were analyzed for cytokines using the MILLIPLEX® MAP mouse cytokine assay for MIP1-β (EMD Millipore Corp., Billerica, Mass.). **P<0.01, *P<0.05 by unpaired t-test as compared to vehicle treated controls. […] Corneas were injected intrastromally with 0.5 μl of peptide 95-122 at a final concentration of 10^−4 M, 10^−5 M, and 10^−6 M and vehicle (saline) control. Corneas were collected and flash frozen at 24 hours and 48 hours. Corneal lysates were analyzed for cytokines using the MILLIPLEX® MAP mouse cytokine assay for KC (A), IL-1β (B), and GM-CSF (C) (EMD Millipore Corp., Billerica, Mass.). **P<0.01, *P<0.05 by unpaired t-test as compared to vehicle treated controls.

| Sequence | Mean Wound Healing (%) (swine skin; Day 0) | Mean Wound Healing (%) (swine skin; Day 14) | histology: epidermal resurfacing and maturation vs saline control (swine skin) | dermal wound healing vs saline (swine skin) | Histopathology Results, Mean Angiogenesis (swine skin) | Histopathology Results, Mean Epithelization (swine skin) | Histopathology Results, Mean Granulation (swine skin) | Histopathology Results, Mean Inflammation (swine skin) | also measured |
| --- | --- | --- | --- | --- | --- | --- | --- | --- | --- |
| GTRCQVAGWGSWHSGGRLSRFPRFVNV [Peptide 120-146WH] | 0.0 | 97.5 | greater extent of epidermal resurfacing and maturation of the epidermis | accelerate dermal wound healing | 1.7 | 3.7 | 4.0 | 0.5 | CFU/eye at 48 hours post infection vs saline [1]: significantly reduced the CFU/eye; Mean Wound Healing (%) (swine skin; Day 3): 22.1%; Mean Wound Healing (%) (swine skin; Day 5): 35.9%; Mean Wound Healing (%) (swine skin; Day 7): 59.7%; Mean Wound Healing (%) (swine skin; Day 10): 93.5% |
| LDREANLTSSVTILPLPLQNATVEAGTR (listed as Homo sapiens) [Peptide 95-122] | 0.0 | 100.0 | greater extent of epidermal resurfacing and maturation of the epidermis | accelerate dermal wound healing | 2.3 | 4.0 | 4.0 | 0.5 | GM-CSF in corneal lysates [2]: significantly increases; IFN-γ in corneal lysates [2]: significantly increases; IL-1β in corneal lysates [2]: significantly increases; IL-7 in corneal lysates [2]: significantly increases; IL-15 in corneal lysates [2]: significantly increases; KC in corneal lysates [2]: significantly increases; MIP1-13 in corneal lysates [2]: significantly increases; MIP1-α in corneal lysates [2]: significantly increases |
